# Measurements as given in patent US10597388B2, “Pyridazinone herbicides” (FMC CORPORATION, priority 2014, dated 2020).
# Columns and labels:
# Experiment in all cases: Test C greenhouse herbicide test, pre- and postemergence
# Assay type in all cases: in vivo
# [1] = test system: barnyardgrass (Echinochloa crus-galli)
# In short: (§1)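 Greenhouse pots; pre-em on seeded loam:sand blend, post-em on 2–18 cm plants (1–4 leaf) in sphagnum peat/vermiculite medium. Formulation: non-phytotoxic solvent + surfactant. Read-out: visual % control (0–100) vs controls at 13–15 d.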
# [2] = test system: crabgrass, large (large crabgrass, Digitaria sanguinalis)
# In short: as §1
# [3] = test system: foxtail, giant (giant foxtail, Setaria faberii)
# In short: as §1
# [4] = test system: galium (catchweed bedstraw, Galium aparine)
# In short: as §1
# [5] = test system: johnsongrass (Sorghum halepense)
# In short: as §1
# [6] = test system: lambsquarters (Chenopodium album)
# In short: as §1
# [7] = test system: nutsedge, yellow (yellow nutsedge, Cyperus esculentus)
# In short: as §1
# [8] = test system: oilseed rape (Brassica napus)
# In short: as §1
# [9] = test system: ragweed (common ragweed, Ambrosia elatior)
# In short: as §1
# [10] = test system: soybean (Glycine max)
# In short: as §1
# [11] = test system: waterhemp (common waterhemp, Amaranthus rudis)
# In short: as §1
# [12] = test system: wheat (winter wheat, Triticum aestivum)
# In short: as §1
# [13] = Postemergence, 31 g ai/ha, 0 to 100 scale (0 no effect, 100 complete control)
# [14] = Postemergence, 125 g ai/ha, scale 0 to 100, 0 is no effect, 100 is complete control
# [15] = Postemergence, 250 g ai/ha, scale 0 to 100, 0 no effect, 100 complete control, 13 to 15 d
# [16] = Preemergence, 31 g ai/ha, scale 0 to 100, 0 is no effect, 100 is complete control
# [17] = Preemergence, 62 g ai/ha, scale 0 to 100, 0 is no effect, 100 is complete control
# [18] = Preemergence, 125 g ai/ha, scale 0 to 100, 0 is no effect, 100 is complete control
# [19] = Preemergence, 250 g ai/ha, scale 0 to 100, 0 no effect, 100 complete control
# [20] = postemergence, 62 g ai/ha, scale 0 to 100, 0 no effect, 100 complete control
# [21] = Postemergence, 8 g ai/ha, scale 0 to 100 (0 no effect, 100 complete control)
# [22] = Postemergence, 16 g ai/ha, scale 0 to 100 (0 no effect, 100 complete control)
# [23] = Preemergence, 8 g ai/ha, scale 0 to 100, 0 is no effect, 100 is complete control
# [24] = Preemergence, 16 g ai/ha, scale 0 to 100, 0 is no effect, 100 is complete control
compound,measurement,setting,value
Cc1cc2ccccc2c(-c2c(O)c(C)nn(C)c2=O)c1C [Compound 34],Barnyardgrass plant response rating,[1]; [13],20
same,"Plant response rating, Barnyardgrass",[1]; [14],35
same,"Plant response rating, Barnyardgrass",[1]; [15],35
same,"Plant response rating, Barnyardgrass",[1]; [16],60
same,"Plant response rating, Barnyardgrass",[1]; [17],55
same,"Plant response rating, Barnyardgrass",[1]; [18],65
same,Barnyardgrass plant response rating,[1]; [19],75
same,Barnyardgrass plant response rating,[1]; [20],25
same,"Crabgrass, Large plant response rating",[2]; [13],5
same,"Plant response rating, Crabgrass, Large",[2]; [14],20
same,"Plant response rating, Crabgrass, Large",[2]; [15],25
same,"Plant response rating, Crabgrass, Large",[2]; [16],0
same,"Plant response rating, Crabgrass, Large",[2]; [17],10
same,"Plant response rating, Crabgrass, Large",[2]; [18],25
same,"Crabgrass, Large plant response rating",[2]; [19],30
same,"Crabgrass, Large plant response rating",[2]; [20],10
same,"Foxtail, Giant plant response rating",[3]; [13],10
same,"Plant response rating, Foxtail, Giant",[3]; [14],25
same,"Plant response rating, Foxtail, Giant",[3]; [15],35
same,"Plant response rating, Foxtail, Giant",[3]; [16],0
same,"Plant response rating, Foxtail, Giant",[3]; [17],65
same,"Plant response rating, Foxtail, Giant",[3]; [18],75
same,"Foxtail, Giant plant response rating",[3]; [19],70
same,"Foxtail, Giant plant response rating",[3]; [20],20
same,Galium plant response rating,[4]; [13],90
same,"Plant response rating, Galium",[4]; [14],95
same,"Plant response rating, Galium",[4]; [15],95
same,"Plant response rating, Galium",[4]; [16],95
same,"Plant response rating, Galium",[4]; [17],95
same,"Plant response rating, Galium",[4]; [18],90
same,Galium plant response rating,[4]; [19],100
same,Galium plant response rating,[4]; [20],95
same,Johnsongrass plant response rating,[5]; [13],5
same,"Plant response rating, Johnsongrass",[5]; [14],5
same,"Plant response rating, Johnsongrass",[5]; [15],5
same,"Plant response rating, Johnsongrass",[5]; [16],0
same,"Plant response rating, Johnsongrass",[5]; [17],0
same,"Plant response rating, Johnsongrass",[5]; [18],0
same,Johnsongrass plant response rating,[5]; [19],20
same,Johnsongrass plant response rating,[5]; [20],5
same,Lambsquarters plant response rating,[6]; [13],90
same,"Plant response rating, Lambsquarters",[6]; [14],95
same,"Plant response rating, Lambsquarters",[6]; [15],100
same,"Plant response rating, Lambsquarters",[6]; [16],80
same,"Plant response rating, Lambsquarters",[6]; [17],90
same,"Plant response rating, Lambsquarters",[6]; [18],80
same,Lambsquarters plant response rating,[6]; [19],75
same,Lambsquarters plant response rating,[6]; [20],90
same,"Nutsedge, Yellow plant response rating",[7]; [13],45
same,"Plant response rating, Nutsedge, Yellow",[7]; [14],85
same,"Plant response rating, Nutsedge, Yellow",[7]; [15],85
same,"Plant response rating, Nutsedge, Yellow",[7]; [16],25
same,"Plant response rating, Nutsedge, Yellow",[7]; [17],25
same,"Plant response rating, Nutsedge, Yellow",[7]; [18],35
same,"Nutsedge, Yellow plant response rating",[7]; [19],65
same,"Nutsedge, Yellow plant response rating",[7]; [20],60
same,Oilseed Rape plant response rating,[8]; [13],30
same,"Plant response rating, Oilseed Rape",[8]; [14],50
same,"Plant response rating, Oilseed Rape",[8]; [15],20
same,"Plant response rating, Oilseed Rape",[8]; [16],10
same,"Plant response rating, Oilseed Rape",[8]; [17],25
same,"Plant response rating, Oilseed Rape",[8]; [18],90
same,Oilseed Rape plant response rating,[8]; [19],90
same,Oilseed Rape plant response rating,[8]; [20],30
same,Ragweed plant response rating,[9]; [13],85
same,"Plant response rating, Ragweed",[9]; [14],95
same,"Plant response rating, Ragweed",[9]; [15],95
same,"Plant response rating, Ragweed",[9]; [16],80
same,"Plant response rating, Ragweed",[9]; [17],80
same,"Plant response rating, Ragweed",[9]; [18],90
same,Ragweed plant response rating,[9]; [19],95
same,Ragweed plant response rating,[9]; [20],98
same,Soybean plant response rating,[10]; [13],5
same,"Plant response rating, Soybean",[10]; [14],15
same,"Plant response rating, Soybean",[10]; [15],5
same,"Plant response rating, Soybean",[10]; [17],10
same,"Plant response rating, Soybean",[10]; [18],0
same,Soybean plant response rating,[10]; [19],5
same,Soybean plant response rating,[10]; [20],5
same,Waterhemp plant response rating,[11]; [13],85
same,"Plant response rating, Waterhemp",[11]; [14],90
same,"Plant response rating, Waterhemp",[11]; [15],98
same,"Plant response rating, Waterhemp",[11]; [17],100
same,"Plant response rating, Waterhemp",[11]; [18],100
same,Waterhemp plant response rating,[11]; [19],100
same,Waterhemp plant response rating,[11]; [20],85
same,Wheat plant response rating,[12]; [13],5
same,"Plant response rating, Wheat",[12]; [14],10
same,"Plant response rating, Wheat",[12]; [15],0
same,"Plant response rating, Wheat",[12]; [17],0
same,"Plant response rating, Wheat",[12]; [18],5
same,Wheat plant response rating,[12]; [19],25
same,Wheat plant response rating,[12]; [20],5
Cc1nn(C)c(=O)c(-c2c(C)sc3c(C)cc(Cl)cc23)c1O [Compound 35],"Plant response rating, Barnyardgrass",[1]; [21],10
same,"Plant response rating, Barnyardgrass",[1]; [22],10
same,Barnyardgrass plant response rating,[1]; [13],20
same,"Plant response rating, Barnyardgrass",[1]; [23],0
same,"Plant response rating, Barnyardgrass",[1]; [24],5
same,"Plant response rating, Barnyardgrass",[1]; [16],5
same,"Plant response rating, Barnyardgrass",[1]; [17],25
same,Barnyardgrass plant response rating,[1]; [20],20
same,"Plant response rating, Crabgrass, Large",[2]; [21],5
same,"Plant response rating, Crabgrass, Large",[2]; [22],5
same,"Crabgrass, Large plant response rating",[2]; [13],20
same,"Plant response rating, Crabgrass, Large",[2]; [23],0
same,"Plant response rating, Crabgrass, Large",[2]; [24],0
same,"Plant response rating, Crabgrass, Large",[2]; [16],5
same,"Plant response rating, Crabgrass, Large",[2]; [17],5
same,"Crabgrass, Large plant response rating",[2]; [20],20
same,"Plant response rating, Foxtail, Giant",[3]; [21],25
same,"Plant response rating, Foxtail, Giant",[3]; [22],35
same,"Foxtail, Giant plant response rating",[3]; [13],50
same,"Plant response rating, Foxtail, Giant",[3]; [23],5
same,"Plant response rating, Foxtail, Giant",[3]; [24],25
same,"Plant response rating, Foxtail, Giant",[3]; [16],60
same,"Plant response rating, Foxtail, Giant",[3]; [17],85
same,"Foxtail, Giant plant response rating",[3]; [20],75
same,"Plant response rating, Galium",[4]; [21],90
same,"Plant response rating, Galium",[4]; [22],90
same,Galium plant response rating,[4]; [13],90
same,"Plant response rating, Galium",[4]; [24],90
same,"Plant response rating, Galium",[4]; [16],90
same,"Plant response rating, Galium",[4]; [17],95
same,Galium plant response rating,[4]; [20],95
same,"Plant response rating, Johnsongrass",[5]; [21],10
same,"Plant response rating, Johnsongrass",[5]; [22],15
same,Johnsongrass plant response rating,[5]; [13],20
same,"Plant response rating, Johnsongrass",[5]; [24],0
same,"Plant response rating, Johnsongrass",[5]; [16],10
same,"Plant response rating, Johnsongrass",[5]; [17],10
same,Johnsongrass plant response rating,[5]; [20],20
same,"Plant response rating, Lambsquarters",[6]; [21],35
same,"Plant response rating, Lambsquarters",[6]; [22],75
same,Lambsquarters plant response rating,[6]; [13],80
same,"Plant response rating, Lambsquarters",[6]; [24],5
same,"Plant response rating, Lambsquarters",[6]; [16],20
same,"Plant response rating, Lambsquarters",[6]; [17],100
same,Lambsquarters plant response rating,[6]; [20],70
same,"Plant response rating, Nutsedge, Yellow",[7]; [21],45
same,"Plant response rating, Nutsedge, Yellow",[7]; [22],60
same,"Nutsedge, Yellow plant response rating",[7]; [13],75
same,"Plant response rating, Nutsedge, Yellow",[7]; [24],20
same,"Plant response rating, Nutsedge, Yellow",[7]; [16],20
same,"Plant response rating, Nutsedge, Yellow",[7]; [17],40
same,"Nutsedge, Yellow plant response rating",[7]; [20],85
same,"Plant response rating, Oilseed Rape",[8]; [21],0
same,"Plant response rating, Oilseed Rape",[8]; [22],0
same,"Plant response rating, Oilseed Rape",[8]; [24],5
same,"Plant response rating, Oilseed Rape",[8]; [16],90
same,"Plant response rating, Oilseed Rape",[8]; [17],90
same,Oilseed Rape plant response rating,[8]; [20],10
same,"Plant response rating, Ragweed",[9]; [21],0
same,"Plant response rating, Ragweed",[9]; [22],0
same,Ragweed plant response rating,[9]; [13],25
same,"Plant response rating, Ragweed",[9]; [24],0
same,"Plant response rating, Ragweed",[9]; [16],5
same,"Plant response rating, Ragweed",[9]; [17],40
same,Ragweed plant response rating,[9]; [20],40
same,"Plant response rating, Soybean",[10]; [21],0
same,"Plant response rating, Soybean",[10]; [22],0
same,Soybean plant response rating,[10]; [13],0
same,"Plant response rating, Soybean",[10]; [24],0
same,"Plant response rating, Soybean",[10]; [16],0
same,"Plant response rating, Soybean",[10]; [17],0
same,Soybean plant response rating,[10]; [20],5
same,"Plant response rating, Waterhemp",[11]; [21],0
same,"Plant response rating, Waterhemp",[11]; [22],30
same,Waterhemp plant response rating,[11]; [13],25
same,"Plant response rating, Waterhemp",[11]; [24],40
same,"Plant response rating, Waterhemp",[11]; [16],40
same,"Plant response rating, Waterhemp",[11]; [17],50
same,Waterhemp plant response rating,[11]; [20],45
same,"Plant response rating, Wheat",[12]; [21],0
same,"Plant response rating, Wheat",[12]; [22],0
same,Wheat plant response rating,[12]; [13],0
same,"Plant response rating, Wheat",[12]; [24],0
same,"Plant response rating, Wheat",[12]; [16],0
same,"Plant response rating, Wheat",[12]; [17],5
same,Wheat plant response rating,[12]; [20],5
